Test results: patent US5527821A, “Pharmacologically active alpha-[tertiary-aminomethyl]-benzenemethanol derivatives” (Pharmacia AB, priority 1992, dated 1996)
Structures can show the parent of a compound that is named as a salt. Where two headings read alike, the source gives them in different places.

Key:
[1] = test system: isolated rabbit urethra; experiment: Effects on the isolated rabbit urethra (contraction, in vitro); format: cell-based; details: Krebs solution, 37° C.; for EC50: cumulative addition
Method: (§1) Female rabbits weighing 2.5-3.0 kg were sacrificed and exsanguinated. The urethra and portal vein were dissected out and suspended in organ baths containing oxygenated Krebs solution at 37° C. Two rings of urethra (4 mm broad) and two longitudinal strips of the portal vein were used. The basal tension was adjusted to about 10 mN after an equilibration time of 60 minutes. Isometric tension was recorded via a force transducer (Statham FT03) and registered on a Grass polygraph model 7.
(§2) Submaximum concentrations of noradrenaline (6×10^-5 M) were used to achieve reference contractions.
(§3) The test substances were added cumulatively (12 concentrations) until a maximum response was obtained.

[2] = test system: isolated rabbit portal vein; experiment: Effects on the isolated rabbit portal vein (contraction, in vitro); format: cell-based; details: for EC50 / Emax: Oryctolagus cuniculus; for EC50: read-out: Portal vein, in vitro: EC50 value (effective concentration inducing a half maximum contraction)
Method: as §1, §2, §3

[3] = test system: urethra (urethral pressure in anaesthetized rabbits); experiment: Effects on urethral pressure in anaesthetized rabbits; format: in vivo, rabbit; details: Oryctolagus cuniculus, iv, reference noradrenaline 0.025 μg/kg i.v.; for Emax: read-out: Max. urethral pressure in vivo, in % of NA-max, anaesthetized rabbits, i.v. injections of different doses
Method: (§4) Rabbits, weighing 2.5-3 kg, were anaesthetized by pentobarbitone (initially 40 mg/kg i.v. and for maintenance anaesthesia 10 mg/kg, h). For recording of urethral pressure a catheter (Dog cath nr 6.) was inserted into the urethra and placed at the point of highest pressure. The basal urethral pressure was approximately 10 cm H2 O. The blood pressure was recorded via a catheter (PP50) inserted into a femoral artery. Substances were injected intravenously into a catheter in a femoral vein. The continuous intravenous infusion of pentobarbitone kept the depth of anesthesia at a constant level through the experiment. Three consecutive noradrenaline injections (0.025 μg/kg i.v.) were given initially to constitute reference responses. Repeated intravenous injections of different doses of the same test compound were given in a randomized manner. […] In other pharmacological experiments (not described here) it was also shown that the described compounds had no or minimal effect on other organs, such as for example the urinary bladder, central nervous system, intestine, vas deferens etc.

[4] = test system: blood pressure in anaesthetized rabbits; experiment: Effects on blood pressure in anaesthetized rabbits; format: in vivo, rabbit; details: i.v. injections of different doses, femoral artery catheter
Method: as §4

[5] = Oryctolagus cuniculus, read-out: Urethra, in vitro: EC50-value (effective concentration inducing a half maximum contraction), female rabbit urethra rings
[6] = Oryctolagus cuniculus, read-out: Urethra, in vitro: Max. contraction, female rabbit urethra rings, cumulative addition (12 concentrations), reference noradrenaline 6×10^-5 M
[7] = read-out: Portal vein, in vitro: Max. contraction, female rabbit portal vein longitudinal strips, cumulative addition (12 concentrations), reference noradrenaline 6×10^-5 M, Krebs solution, 37° C.

| Structure (SMILES) | EC50 [1, 5] [µM] | Emax [1, 6] [%] | EC50 [2] [µM] | Emax [2, 7] [%] | Emax [3] [%] | Blood pressure; max change, in % [4] [%] | further results |
| --- | --- | --- | --- | --- | --- | --- | --- |
| CC=COc1c(OC)cccc1C(O)CN1CCCC1.O=C(O)C(=O)O (stereo not drawn) [Compound 8, 3-Methoxy-2-(1-propenyloxy)-α-pyrrolidinomethyl-benzenemethanol, hydrogen oxalate] | – | – | – | – | – | – | Urethra, in vitro: Max. contraction ([1]; female rabbit urethra rings, cumulative addition (12 concentrations), reference noradrenaline 6×10^-5 M): 52 % of NA-max; EC50 ([1]; female rabbit urethra rings, read-out: Urethra, in vitro: EC50-value (effective concentration inducing a half maximum contraction)): 190 µM; Portal vein, in vitro: Max. contraction ([2]; female rabbit portal vein longitudinal strips, cumulative addition (12 concentrations), reference noradrenaline 6×10^-5 M, Krebs solution, 37° C.): 0 % of NA-max |
| CC(C)Oc1c(Cl)cccc1C(O)CN(C)C.Cl (stereo not drawn) [Compound 9, 3-Chloro-α-[(dimethylamino)methyl]-2-(1-methylethoxy)-benzenemethanol, hydrochloride] | 11 | 79 | 60 | 22 | 192 | 14 | – |
| CCN(CC)CC(O)c1cccc(Cl)c1OC(C)C (stereo not drawn) [Compound 10, 3-Chloro-α-[(diethylamino)methyl]-2-(1-methylethoxy)-benzenemethanol, hydrogen oxalate] | 12 | 81 | 11 | 28 | – | – | – |
| CCN(C)CC(O)c1cccc(Cl)c1OC(C)C.Cl (stereo not drawn) [Compound 11, 3-Chloro-α-[(N-ethyl-N-methylamino)methyl]-2-(1-methylethoxy)-benzenemethanol, hydrochloride] | 5.3 | 100 | 4.5 | 54 | 210 | 34 | – |
| CC(C)Oc1c(C(O)CN(C)C)cccc1[N+](=O)[O-] (stereo not drawn) [Compound 12, α-[(Dimethylamino)methyl]-2-(1-methylethoxy)-3-nitro-benzenemethanol, hydrochloride] | 11 | 80 | 17 | 18 | – | – | – |
| CC(C)Sc1c(Cl)cccc1C(O)CN(C)C (stereo not drawn) [Compound 13, 3-Chloro-α-[(dimethylamino)methyl]-2-(1-methylethylthio)-benzenemethanol, hydrochloride] | 77 | 45 | – | 4 | – | – | – |
| COc1cccc(C(O)CN(C)C)c1SC(C)C (stereo not drawn) [Compound 14, α-[(Dimethylamino)methyl]-3-methoxy-2-(1-methylethylthio)-benzenemethanol, hydrochloride] | 11 | 67 | – | 5 | – | – | – |
| C=CCOc1c(OC)cccc1C(O)CN(C)C (stereo not drawn) [Compound 15, α-[(Dimethylamino)methyl]-3-methoxy-2-(2-propenyloxy)-benzenemethanol, hydrogen oxalate] | 47 | 104 | 90 | 11 | – | – | – |
| NC[C@H](O)c1ccc(O)c(O)c1 [Noradrenaline, noradrenaline, reference compound] | – | – | – | – | – | – | Emax ([1]; Oryctolagus cuniculus, female rabbit urethra rings, cumulative addition (12 concentrations), reference noradrenaline 6×10^-5 M, read-out: Urethra, in vitro: Max. contraction): 100%; EC50 ([1]; Oryctolagus cuniculus, female rabbit urethra rings, read-out: Urethra, in vitro: EC50-value (effective concentration inducing a half maximum contraction)): 16 µM; Emax ([2]; female rabbit portal vein longitudinal strips, cumulative addition (12 concentrations), reference noradrenaline 6×10^-5 M, Krebs solution, 37° C., read-out: Portal vein, in vitro: Max. contraction): 100%; EC50 ([2]; female rabbit portal vein longitudinal strips, cumulative addition, Krebs solution, 37° C.): 5.3 µM; Emax at 2.5e-05 mg/kg ([3]; anaesthetized rabbits, i.v. injections of different doses, read-out: Max. urethral pressure in vivo, in % of NA-max): 100% |
| CC(N)C(O)c1ccccc1 (centres unmarked) [PPA, phenylpropanolamine, reference compound] | 200 | 60 | 70 | 67 | 99 | 72 | – |
